This note sets out measurements from patent publication US8318664B2, “Unacylated ghrelin fragments as therapeutic agent in the treatment of obesity” (Alize Pharma SAS, priority 2007, dated 2012).

For one assay, the system named is hamster HIT-T15 β-cells. As to the kind of experiment: MTT cell survival assay in HIT-T15 β-cells. The format is cell-based. The protocol: MTT experiments were also performed in hamster HIT-T15 β-cells, to test the survival effect of UAG (1-28) or its fragments UAG (1-14), UAG (1-18), UAG (1-5) and UAG (17-28) in serum deprived medium, either alone or with IFN-γ/TNF-α/IL-1β. As for the experiments performed on INS-1E β-cells, the peptides were tested at increasing concentrations, ranging from 0.1 nM to 100 nM.
The survival effect of UAG (6-13), UAG (8-13), UAG (8-12), UAG (8-11), UAG (9-12) and UAG (9-11) was assessed in cytokine-treated HIT-T15 β-cells.
The protective effects of peptides UAG (8-13) and UAG (8-12) were found similar to those of UAG (1-14) and UAG (1-18). A peptide made of the inverse sequence of UAG (1-14) and named UAG (14-1), was used as negative control for these experiments (FIG. 5A). […] These effects were however lower than those of UAG (6-13) (FIG. 5B).
UAG fragments with alanine (Ala) substitutions at different amino acid positions (6 to 13) were tested with regards to their survival effects in HIT-T15 hamster β-cells. The cells were cultured in serum deprived medium, either alone or with IFN-γ/TNF-α/IL-1β. The peptides were tested at the concentrations of 1 nM to 100 nM. […] Under treatment with cytokines, where cell survival was reduced by ≈18% with respect to serum starved conditions, all Ala substitutions, except those at positions 10 and 11, completely reversed cell death and brought the survival rate to levels that were even higher than those under serum-free conditions, at both 1 nM and 100 nM concentrations. These effects were similar to those elicited by the original peptide UAG (6-13) (FIG. 11B).
Particularly, the best effect was exerted by Gly 6-UAG (6-13), whereas the lowest was seen using AcSer 6-UAG (6-13), AcSer 6-(D)Pro 7-UAG (6-13) (FIG. 12B).
(§1) Hamster HIT-T15 insulin-secreting β-cells were obtained and cultured as described (Refs. 14, 4). INS-1E rat β-cells were kindly provided by Prof. Claes B. Wollheim (University Medical Center, Geneva, Switzerland) and cultured as described (Refs. 14, 4). Cell culture reagents were from Invitrogen (Milano, Italy). Cytokines were from Biosource (Invitrogen, Italy).
(§2) Cell survival was assessed by 3-[4,5-dimethylthiazol-2-yl]-2,5diphenyltetrazolium bromide (MTT) as described previously (Ref. 4). Cells were seeded on 96-well plates at a density of 5×10^3 cells/well. After treatments, cells were incubated with 1 mg/ml MTT for ≈1 h. The medium was aspirated, and the formazan product solubilized with 100 μl DMSO. Viability was assessed by spectrophotometry at 570 nm absorbance using a 96-well plate reader.

Assay [1] concerns human pancreatic islets. Nature of the assay: Insulin secretion in human pancreatic islets. The assay is classed as cell-based. The conditions noted are these: peptide 100 nM, glucose absent or 2 to 25 mM. The protocol:
The effects of UAG (1-14) and UAG (1-18), both used at 100 nM, were investigated on insulin secretion in human islets. […] UAG (1-28) and Exendin-4 were used as positive controls (FIGS. 8C and 8D).

A further assay deals with INS-1E rat β-cells. As to the kind of experiment: MTT cell survival assay in INS-1E β-cells. The format is cell-based. The conditions noted are these: 0.1 nM to 100 nM. The method, then:
The peptides were tested at increasing concentrations, ranging from 0.1 nM to 100 nM.
as §1, §2

Assay [2] deals with human pancreatic islets. As to the kind of experiment: MTT cell survival assay in human pancreatic islets. The format is cell-based. The conditions noted are these: human islet cells, 1 nM to 100 nM. The method, then: The survival effect of UAG (1-14), UAG (1-18), UAG (1-5) and UAG (17-28), with respect to that of full length UAG (1-28), was assessed in human pancreatic islets by MTT. The peptides were tested in islet cells cultured in serum deprived medium, either alone or with IFN-γ/TNF-α/IL-1β (5 ng/ml each).
Human islets were obtained from pancreases of multiorgan donors as described (Ref. 4). Islet preparations with purity >70%, not suitable for transplantation, were provided by European Consortium for Islet Transplantation (ECIT) “Islets for Research Distribution Program,” Transplant Unit, Scientific Institute San Raffaele, Vita-Salute University, Milan. Islets (10,000) were cultured in CMRL (Invitrogen) with 10% FBS.
as §2

For a further assay, the system named is HIT-T15 β-cells. Nature of the assay: Glucose-induced insulin secretion in HIT-T15 β-cells. The format is cell-based, hamster. The conditions noted are these: data not shown. The method, then:
HIT-T15 cells were plated at density of 5×10^5 cells into 100-mm dishes and serum starved for 24 h before incubation for 1 h at 37° C. in HEPES-buffered Krebs-Ringer bicarbonate buffer (KRBH), containing 0.5% BSA with 1.25 mM glucose. The medium was changed and the cells were incubated again for 1 h in KRBH/0.5% BSA containing 1.25, 7.5 or 15 mM glucose. Following acid ethanol extraction of the hormone, secreted insulin was quantitated by a radioimmunoassay kit (Linco Research, Labodia, Yens, Switzerland) which recognizes human insulin and cross reacts with rat insulin.

The subject of assay [3] is UAG receptor on INS-1E pancreatic β-cells. As to the kind of experiment: Competition with [125I-Tyr4]-UAG for binding sites on INS-1E membranes. More on the design: species or system rat. The method, then:
(§3) The ability of the fragment UAG (6-13) to compete in a concentration-dependent manner with [^125I-Tyr^4]-UAG for HIT-T15 (FIG. 10A) and INS-1E (FIG. 10B) binding sites was assayed. As shown in FIGS. 10A and 10B, unlabelled UAG (1-28) and UAG (6-13) competed with a similar efficacy and in a concentration-dependent fashion with [^125I-Tyr^4]-UAG for such binding sites in both cell lines.
(§4) Membranes from hamster HIT-T15 and rat INS-1E pancreatic β-cells were prepared and assayed for the presence of [^125I-Tyr^4]-UAG binding. The ability of UAG fragments to compete with the radioligand for such binding sites has been evaluated as previously described (Ref. 4). Data are presented as mean±S.E.M. of three independent experiments.

In assay [4] the test system is UAG receptor on HIT-T15 pancreatic β-cells. Nature of the assay: Competition with [125I-Tyr4]-UAG for binding sites on HIT-T15 membranes. The arrangement: species or system hamster. The protocol: as §3, §4
[5] abbreviates: serum deprived medium with IFN-γ/TNF-α/IL-1β.

“Also recorded” adds a separate entry of the source. No end group written: not given here.

GSSFLSPEHQRVQQ [UAG (1-14)]: the “cell survival (MTT)” value in the assay with hamster HIT-T15 β-cells (serum deprived medium alone) is on record as “significantly increased cell viability; also recorded: potently increased cell survival”; with hamster HIT-T15 β-cells (setting [5]), “significantly increased cell viability; also recorded: potently increased cell survival”; in the assay with INS-1E rat β-cells (serum deprived medium alone) it was “potently increased cell survival”; in the assay with INS-1E rat β-cells (setting [5]), “potently increased cell survival”; in the assay on human pancreatic islets [2] (serum deprived medium with IFN-γ/TNF-α/IL-1β (5 ng/ml each)), “prevented cell death at 100 nM”. In the assay on human pancreatic islets [1], the insulin secretion result was “significantly increased insulin secretion both in the absence and presence of glucose”. The glucose-induced insulin secretion result in the assay on HIT-T15 β-cells was “significantly increased glucose-induced insulin secretion”. For the same sequence, the “binding to the UAG receptor” value in assay [3] is “recognized and bound”; in assay [4], “recognized and bound”.
Consider GSSFLSPEHQRVQQRKES [UAG (1-18)], for which the “cell survival (MTT)” value in the assay with hamster HIT-T15 β-cells (serum deprived medium alone) is “significantly increased cell viability; also recorded: potently increased cell survival”; with hamster HIT-T15 β-cells (setting [5]), “significantly increased cell viability; also recorded: potently increased cell survival”; in the assay with INS-1E rat β-cells (serum deprived medium alone) it was “potently increased cell survival”; in the assay with INS-1E rat β-cells (setting [5]) it was “potently increased cell survival”; with human pancreatic islets [2] (serum deprived medium alone) it was “significantly increased cell survival at 1 nM and 10 nM”. For the same sequence, the insulin secretion result in the assay with human pancreatic islets [1] is reported as “significant effect with 7.5 mM glucose”.
